Experimental data taken from patent publication US9890111B2, “Crystal structure of bifunctional transglycosylase PBP1b from E. coli and inhibitors thereof” (Academia Sinica, priority 2008, dated 2018).
In brackets after ≈: the same amount, converted by molar mass.

Legend:
PBP = PBP (Escherichia coli, UniProt P02919); experiment: PBP binding affinity by SPR; details: read-out: steady-state affinity (KD)
Source text: Candidate compounds to be tested were labeled with fluorescein (6-carboxyfluoresein N-hydroxysuccinimide ester) under basic conditions to prepare the fluorescent probe. One major concern about the fluorescent probe used in the FA assay is the probe itself; either the fluorophore or the structure modification, may interfere with the binding between the targeted protein and the small molecule. Therefore, the PBP binding affinities of Moe A and the fluorescent probe are compared using SPR.

[1] = target: T1, penicillin-binding protein 1b from E. coli (transglycosylase) (Escherichia coli, UniProt P02919); experiment: Lipid II polymerization / transglycosylase (TG) activity assay; assay type: biochemical
T1 construct: PBP1b[58-804] was amplified from E. coli genomic DNA and cloned into the expression vector pET15b; His6 (N, cleaved yes); made in house; host or cells: E. coli BL21(DE3)
T1 sequence (P02919 58-804): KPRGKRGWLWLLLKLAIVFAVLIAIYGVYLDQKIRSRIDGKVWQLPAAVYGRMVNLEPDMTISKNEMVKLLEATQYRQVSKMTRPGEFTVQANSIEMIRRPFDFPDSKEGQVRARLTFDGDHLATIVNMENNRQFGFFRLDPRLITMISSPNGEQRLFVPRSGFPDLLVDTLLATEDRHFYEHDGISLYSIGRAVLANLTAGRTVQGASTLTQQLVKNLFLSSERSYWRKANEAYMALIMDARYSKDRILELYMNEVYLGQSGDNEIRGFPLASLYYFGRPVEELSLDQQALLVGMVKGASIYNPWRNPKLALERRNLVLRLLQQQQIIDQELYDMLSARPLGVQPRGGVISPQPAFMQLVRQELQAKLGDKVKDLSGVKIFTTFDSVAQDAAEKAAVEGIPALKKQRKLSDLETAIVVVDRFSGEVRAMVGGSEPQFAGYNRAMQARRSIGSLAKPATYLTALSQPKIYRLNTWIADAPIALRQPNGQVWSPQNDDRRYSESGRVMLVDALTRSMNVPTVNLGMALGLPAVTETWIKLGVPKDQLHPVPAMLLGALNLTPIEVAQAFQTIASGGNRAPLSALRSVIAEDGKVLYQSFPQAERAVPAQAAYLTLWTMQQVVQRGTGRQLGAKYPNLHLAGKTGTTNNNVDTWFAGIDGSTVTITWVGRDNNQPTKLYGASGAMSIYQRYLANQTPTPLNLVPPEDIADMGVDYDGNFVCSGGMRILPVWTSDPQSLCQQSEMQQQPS
Method: Lipid II polymerization assays were carried out by incubating 100 μM fluorophore-labeled lipid II and penicillin-binding protein 1b from E. coli in tubes containing 10 ng/μL N-acetyl muramidase in 50 mM Tris.HCl (pH 8.0), 10 mM MgCl2, 0.1% Triton X-100, 10% DMSO, and 15% MeOH for 30 minutes (Van Nieuwenhze et al. J Am Chem Soc 2002, 124, 3656.). The fluorophore can be dansyl chloride, NBD, BODIPY, fluorescein. Reaction supernatants were then injected onto an anion-exchange HPLC column (SAX1, Supelco Co.) and eluted with a linear gradient of ammonium acetate (20 mM to 0.5 M) in methanol. The eluant was monitored for fluorescence with λex=466 nm and λem=535 nm.
Purified protein was concentrated in 20 mM Tris-HCl (pH 8.0), 300 mM NaCl, and 1 mM DDM. Instead of using Dansyl lipid II, 6-(N-(7-nitrobenz-2-oxa-1,3-diazol-4-yl)amino) hexanoyl (NBD)-labeled Lipid II was prepared as described (Taubes G (2008) Science 321:356-361; Payne D J (2008) Science 321:1644-1645) and used as a substrate to measure TG enzymatic activity, with approach similar to what has been described previously (Holtje J V (1998) Microbiol Mol Biol Rev 62:181-203). Assays were carried out by using the following condition: NBD-Lipid II, 20 nM protein, 50 mM Tris HCl (pH 8.0), 10 mMCaCl2, 0.085% decyl PEG (Anatrace), and 15% MeOH at 37° C. for 0, 1, 3, 5, 7, 9, 20, and 30 min. The concentration of NBD-Lipid II was varied from 1 to 100 μM to determine the rate of the TG activity. After the reaction, 200 μM moenomycin was added to stop the reaction, and 13 μM muramidase (Sigma-Aldrich) was added to digest the TG products to result in NBD-Lipid II without lipid tails. The fluorescent signal decrease of substrate and increase of NBD-Lipid II without lipid tails were detected by anion-exchange column SAX1 (Supelco) on HPLC (Hitachi). The elution procedures was a linear gradient of ammonium acetate (20 mM to 1 M) in MeOH monitored at λexcitation=466 nm and λemission=535 nm. The kinetic parameter was estimated by following the Michaelis-Menten equation. To investigate the importance of transmembrane (TM) helix, PBP1b and PBP1bΔTM (residues Met-1 to Leu-87 were removed) were extracted with the buffer containing 20 mM Tris-HCl (pH 8.0), 300 mM NaCl, and 13 mM FOS-CHOLINE-14 (Anatrace). The protein was purified by nickel chelation chromatography in the presence of 1 mM DDM. The activity assay was carried out by using the following condition: 12 μM NBD-Lipid II, 20 nM protein, 50 mM Tris-HCl (pH 8.0), 10 mM CaCl2, 0.085% decyl PEG, and 15% MeOH at 37° C. for time 0, 1, 3, 5, 7, 9, 20, and 30 min. The initial velocity was used to compare the activity of full-length PBP1b and PBP1bΔTM.

[2] = test system: Staphylococcus aureus (ATCC29213, SA); experiment: Minimal inhibitory concentration (MIC), SA; assay type: cell-based; details: Staphylococcus aureus, ATCC29213, Staphylococcus aureus ATCC29213; read-out: MIC SA
Method: (§1) The minimal inhibitory concentration (MIC) of tested compounds was determined following the NCCLS standard. The experiments were conducted in 96-well microtiter plates using two-fold dilutions in Muller-Hilton broth with (Streptococcus pneumonia) or without blood (Bacillus subtilis, Enterococcus faecalis, Staphylococcus aureus, Escherichia coli, MRSA, Actinetobacter baumannii, Pseudomonas aeruginosa, Stenotrophomonas maltophilia, and Mycobacterium smegmatis). Exponentially growing cells at 5×10^5 cells/ml were incubated with test compounds at various concentrations. After an 18 h to 24 h incubation at 37° C., MIC was determined as the minimal concentration of the compound that prevents bacterial growth.

[3] = test system: methicillin-resistant Staphylococcus aureus (ATCC33592, MRSA); experiment: Minimal inhibitory concentration (MIC), MRSA; assay type: cell-based; details: Staphylococcus aureus, methicillin-resistant Staphylococcus aureus ATCC33592; read-out: MIC MRSA
Method: as §1

[4] = test system: Mycobacterium smegmatis (ATCC11565, MS); experiment: Minimal inhibitory concentration (MIC), MS; assay type: cell-based; details: Mycolicibacterium smegmatis, ATCC11565, Mycobacterium smegmatis ATCC11565; read-out: MIC MS
Method: as §1

[5] = test system: Escherichia coli (ATCC 25922, EC); experiment: Minimal inhibitory concentration (MIC), EC; assay type: cell-based; details: ATCC25922; Escherichia coli ATCC 25922; read-out: MIC EC
Method: as §1

E. coli PBP1b = E. coli PBP1b (Escherichia coli, UniProt P02919); experiment: Fluorescence anisotropy (FA) binding assay; details: library screening
E. coli PBP1b, sequence (P02919 whole entry): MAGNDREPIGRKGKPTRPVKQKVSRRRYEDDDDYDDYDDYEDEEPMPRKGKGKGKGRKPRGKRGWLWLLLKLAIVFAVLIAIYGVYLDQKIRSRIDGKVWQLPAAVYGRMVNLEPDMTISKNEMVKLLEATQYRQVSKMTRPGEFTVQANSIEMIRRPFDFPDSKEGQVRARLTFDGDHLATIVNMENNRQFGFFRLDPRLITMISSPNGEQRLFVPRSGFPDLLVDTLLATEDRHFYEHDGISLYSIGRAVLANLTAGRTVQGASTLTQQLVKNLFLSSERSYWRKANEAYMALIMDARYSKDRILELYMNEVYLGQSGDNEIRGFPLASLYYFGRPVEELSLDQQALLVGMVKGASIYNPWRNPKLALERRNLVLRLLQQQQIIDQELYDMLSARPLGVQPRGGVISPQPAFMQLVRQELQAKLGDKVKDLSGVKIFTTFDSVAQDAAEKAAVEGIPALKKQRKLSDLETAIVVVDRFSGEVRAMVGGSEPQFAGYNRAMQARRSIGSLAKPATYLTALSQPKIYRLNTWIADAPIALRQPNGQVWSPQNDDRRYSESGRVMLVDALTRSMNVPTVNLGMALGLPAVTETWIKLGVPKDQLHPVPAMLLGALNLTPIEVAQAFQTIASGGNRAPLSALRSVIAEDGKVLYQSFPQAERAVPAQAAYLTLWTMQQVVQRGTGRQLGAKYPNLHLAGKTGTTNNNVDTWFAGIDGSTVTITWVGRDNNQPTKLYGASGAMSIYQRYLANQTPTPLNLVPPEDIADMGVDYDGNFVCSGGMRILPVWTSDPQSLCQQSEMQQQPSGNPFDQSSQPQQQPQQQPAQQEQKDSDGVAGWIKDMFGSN
Method: Fluorescence anisotropy measurements were carried out in triplicates in the wells of 384-well or 1536-well plates using a fluorescence detector that is capable to measure fluorescence anisotropy or fluorescencepolarization. For examples, a laser fluorimetry equipped with a 488 nm laser (IsoCyte) from Blueshift Biotech, Inc., (Sunnyvale, Calif., USA) of aViewlux from Perkin Elmer has been used for the application. Various buffers, salts, pH values, and divalent cations (Ca^++, Mg^++, Co^++) were optimized for fluorescence anisotropy measurements. KD and KI determinations were carried out in 100 mM NaCl, 10 mM Tris, pH 8.0. Fluorescence anisotropy values (A) were calculated using the equation: A=(I∥−G*I^⊥)/(I∥+2G*I^⊥), where I∥ is the fluorescence intensity of emitted light parallel to excitation, I^⊥ is the fluorescence intensity of emitted light perpendicular to excitation, and G is the […] that corrects for instrument bias. The G factor is experimentally determined for each run using the probe-only well as the basal anisotropy.
A high-throughput FA assay for transglycosylase was performed as disclosed in co-pending U.S. application Ser. No. 12/354,717. Concentration-dependent changes in fluorescence anisotropy was observed when E. coli PBP1b bound to F-Moe. The maximum anisotropy value was 0.2. […]
KI and IC50 values were determined from competitive displacement assay. […]

PBP, sequence (P02919 58-804): as the sequence (P02919 58-804) above

Work on `C=C(C/C=C(\C)CCC=C(C)C)CCC(C)(C)/C=C/CC/C(C)=C\CO[C@H](COP(=O)(O)O[C@H]1OC(C(N)=O)[C@@](C)(O)[C@H](OC(N)=O)C1O[C@@H]1OC(CO[C@@H]2OC(CO)[C@@H](O)[C@H](O)C2O)[C@@H](O[C@@H]2OC(C)[C@@H](O[C@@H]3OC(C(=O)NC4=C(O)CCC4=O)[C@H](O)[C@H](O)C3O)[C@H](O)C2NC(C)=O)[C@H](O)C1NC(C)=O)C(=O)O` (some centres unmarked) [Moe A, Moenomycin A] yielded a Kd (PBP) of 0.44 µM.
`O=C(Nc1cc(Cl)ccc1Oc1ccccc1)c1cc(Br)cc(Br)c1O` [Compound 009] was tested, and the IC50 [1] was 45 µM, the “transglycosylase inhibition activity (in words)” value [1] was “showed inhibition activities” and the “TG Activity at various concentration of cmpd: 25 μM” value ([1]; 25 μM compound, TG activity remaining (0% = full inhibition)) was 100%. For the same compound, the remaining activity at 50 µM ([1]; read-out: TG Activity at various concentration of cmpd: 50 μM) was 20%, the remaining activity at 100 µM ([1]; read-out: TG Activity at various concentration of cmpd: 100 μM) was 0% and the MIC [2] was 0.5 µg/mL (≈ 1 µM). For the same compound, the MIC [3] was 0.25 µg/mL (≈ 0.502 µM), the MIC [4] was 0.25 µg/mL (≈ 0.502 µM) and the MIC [5] was greater than 256 µg/mL. For the same compound, the “inhibition activity in fluorescence anisotropy (in words)” value (E. coli PBP1b) was “showed inhibition activities”.
